Experimental data published in patent US20240116985A1, “STAPLED PEPTIDES AND METHODS THEREOF” (priority 2020, published 2024).
Read-outs that look alike come from different tables or passages of the source.

Experiments:
[1] = molecular target: T1, full-length beta-Catenin (Uniprot ID P35222) (Homo sapiens, UniProt P35222); experiment: Fluorescence polarization IC50 (beta-catenin / 5FAM-TCF4 10-53 competition); format: binding; conditions: fluorescence polarization; read-out: beta-Catenin FP IC50
T1 construct: 10 nM full-length beta-Catenin (Uniprot ID P35222)
T1 sequence (P35222 1-781): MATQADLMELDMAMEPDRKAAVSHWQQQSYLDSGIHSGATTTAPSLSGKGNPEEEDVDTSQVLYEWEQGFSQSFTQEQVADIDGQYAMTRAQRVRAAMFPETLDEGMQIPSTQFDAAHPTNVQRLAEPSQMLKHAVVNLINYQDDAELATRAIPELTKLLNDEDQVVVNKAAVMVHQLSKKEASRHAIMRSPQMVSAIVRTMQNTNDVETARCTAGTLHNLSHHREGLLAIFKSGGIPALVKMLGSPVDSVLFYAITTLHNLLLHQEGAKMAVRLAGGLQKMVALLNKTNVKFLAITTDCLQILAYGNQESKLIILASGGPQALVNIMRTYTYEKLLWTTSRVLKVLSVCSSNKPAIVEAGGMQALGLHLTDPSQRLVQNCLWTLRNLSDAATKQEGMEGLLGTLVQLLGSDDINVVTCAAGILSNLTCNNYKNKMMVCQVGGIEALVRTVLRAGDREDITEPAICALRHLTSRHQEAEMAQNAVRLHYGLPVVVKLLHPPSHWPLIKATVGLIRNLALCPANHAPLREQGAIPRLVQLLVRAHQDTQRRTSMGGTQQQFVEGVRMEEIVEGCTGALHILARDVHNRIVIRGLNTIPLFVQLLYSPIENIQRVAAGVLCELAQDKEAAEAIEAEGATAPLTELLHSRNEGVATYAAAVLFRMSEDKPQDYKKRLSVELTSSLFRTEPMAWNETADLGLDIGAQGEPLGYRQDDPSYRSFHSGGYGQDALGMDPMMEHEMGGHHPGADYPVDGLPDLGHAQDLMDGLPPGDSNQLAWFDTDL

[2] = test system: COLO320DM cells; format: cell-based; conditions: COLO320DM cells, read-out: COLO320DM Proliferation Abs IC50
How it was run: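 COLO320DM cells at 250 cells/well in RPMI-1640 + 4% HI FBS, dosed after 18–22 h with a 7-point […] 1/2 dilution series from 20 uM down to 313 nM.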

[3] = test system: TCF/LEF luciferase Reporter in DLD1 cells; experiment: TCF reporter assay (DLD1 TCF/LEF luciferase reporter, Bright-Glo); format: cell-based; conditions: read-out: DLD1 4% Abs IC50
How it was run: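 DLD1 cells stably carrying a TCF/LEF luciferase reporter were plated at 5000 cells/well in RPMI + 4% FBS and treated overnight with a 1:2 compound dilution series. Bright-Glo luminescence read on day 3; viability by CellTiter-Glo. Absolute IC50 determined.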

[4] = molecular target: T2, beta-catenin/TCF4 engagement (Homo sapiens, UniProt P35222); experiment: Nano-BRET target engagement assay (B-cat-Halo & TCF4-Luc in HEK293 cells); format: cell-based; conditions: read-out: NanoBRET Abs IC50
T2 construct: expressed in transfected cells; host or cells: HEK293
T2 sequence (P35222 1-781): T1 sequence (P35222 1-781)

[5] = DLD1 reporter, 4%, absolute IC50

Row | Compound | IC50 [1] [µM] | IC50 ([2]; absolute IC50) [µM] | IC50 [3, 5] [µM] | IC50 ([4]; absolute IC50) [µM] | IC50 [2] [µM] | IC50 ([3]; DLD1 4%) [µM] | IC50 [4] [µM]
1 | CC(=O)N1CCN(C(=O)CC[C@@H]2NC(=O)[C@H](Cc3cccc(C(=O)O)c3)NC(=O)[C@H](CC(=O)O)NC(=O)C3(CCCC=CCCCOC(=O)N4CC[C@@](C(=O)N[C@@H](Cc5ccccc5C(F)(F)F)C(=O)N[C@@H](Cc5csc6ccccc56)C(=O)N[C@@H](C)C(N)=O)(C4)NC(=O)[C@H](CC(C)C)NC(=O)[C@H](Cc4ccccc4)NC(=O)[C@H](C)NC2=O)CCCC=CC[C@]2(CCCN2C(C)=O)C(=O)N[C@@H](CC(=O)O)C(=O)N[C@@H](CC(C)(C)C)C(=O)N3)CC1 (stereo partly drawn) [I-2319, Ac-PL3-Asp-Npg-B5-Asp-3COOHF-[AcPpz]GlnR-Ala-Phe-Leu-PyrS2-2F3MeF-BztA-Ala-NH2] | 0.005 | > 20 | 1.7 | 1 | – | – | –
2 | CC[C@@H]1NC(=O)[C@H](Cc2ccccc2)NC(=O)[C@H](C)NC(=O)C(C)(C)NC(=O)[C@H](Cc2cccc(C(=O)O)c2)NC(=O)[C@H](CC(=O)O)NC(=O)C2(CCCC=CCCCOC(=O)N3CC[C@@](C(=O)N[C@@H](Cc4ccccc4C(F)(F)F)C(=O)N[C@@H](Cc4csc5ccccc45)C(=O)N[C@@H](CCC(=O)N(C)C)C(=O)N[C@@H](C)C(N)=O)(C3)NC1=O)CCCC=CC[C@]1(CCCN1C(C)=O)C(=O)N[C@@H](CC(=O)O)C(=O)N[C@@H](CC(C)(C)C)C(=O)N2 (stereo partly drawn) [I-2468, Ac-PL3-Asp-Npg-B5-Asp-3COOHF-Aib-Ala-Phe-Abu-PyrS2-2F3MeF-BztA-Me2Gln-Ala-NH2] | 0.038 | > 20 | 6.4 | 6.2 | – | – | –
3 | CC(=O)N1CCC[C@]12CC=CCCCC1(CCCC=CCCCOC(=O)N3CC[C@@](C(=O)N[C@@H](Cc4ccsc4)C(=O)N[C@@H](Cc4csc5ccccc45)C(=O)N[C@@H](CC(N)=O)C(N)=O)(C3)NC(=O)[C@H](CC(C)C)NC(=O)[C@H](Cc3ccccc3)NC(=O)[C@H](C)NC(=O)[C@H](C)NC(=O)[C@H](Cc3cccc(C(=O)O)c3)NC(=O)[C@H](CC(=O)O)NC1=O)NC(=O)[C@H](CC(C)(C)C)NC(=O)[C@H](CC(=O)O)NC2=O (stereo partly drawn) [I-2043, Ac-PL3-Asp-Npg-B5-Asp-3COOHF-Ala-Ala-Phe-Leu-PyrS2-3Thi-BztA-Asn-NH2] | 0.008 | – | – | – | 15.2 | 1 | 2.8
4 | CC[C@@H]1NC(=O)[C@H](Cc2ccccc2)NC(=O)[C@H](C)NC(=O)C(C)(C)NC(=O)[C@H](Cc2cccc(C(=O)O)c2)NC(=O)[C@H](CC(=O)O)NC(=O)C2(CCCC=CCCCOC(=O)N3CC[C@@](C(=O)N[C@@H](Cc4ccsc4)C(=O)N[C@@H](Cc4csc5ccccc45)C(=O)N[C@@H](CCC(=O)N(C)C)C(=O)N[C@@H](C)C(N)=O)(C3)NC1=O)CCCC=CC[C@]1(CCCN1C(C)=O)C(=O)N[C@@H](CC(=O)O)C(=O)N[C@@H](CC(C)(C)C)C(=O)N2 (stereo partly drawn) [I-2469, Ac-PL3-Asp-Npg-B5-Asp-3COOHF-Aib-Ala-Phe-Abu-PyrS2-3Thi-BztA-Me2Gln-Ala-NH2] | 0.007 | 5.6 | 0.6 | 2.3 | – | – | –
